Experimental findings from US20150259371A1, “METHODS AND COMPOUNDS FOR INHIBITING GLYCOSYLTRANSFERASES” (SIMON FRASER UNIVERSITY, priority 2010, published 2015) are described below.

Assay [1] concerns N-glycosylation of IgG from mouse hybridoma cell line. Nature of the assay: Lectin blots of IgG immunoprecipitated from treated mouse hybridoma cells. The class given is cell-based. To be noted: 0-1000 μM, 24 h.
For assay [2], the system named is O-GlcNAc levels in primary CLL cells. Nature of the assay: Western blot of O-GlcNAc levels in primary CLL cells. The class given is cell-based. To be noted: 0-250 μM, 5 days. Here is the method: Primary CLL cells, obtained from Dr. David Spaner at the University of Toronto, were tested for their response to Ac-5SGlcNAc (9). Cells were plated at a confluency of 1 million cells/mL, and treated with between 0-250 μM 9, in the presence or absence of cytokine (1000 U/mL IL-2 and 1 μg/mL Resiquimod) stimulation to mimic cancer progression. Cells were observed over the course of 5 days, and harvested after this time into SDS-PAGE loading buffer before being subjected to western blotting.

With `CC(=O)NC1C(OC(C)=O)SC(COC(C)=O)C(OC(C)=O)C1OC(C)=O` [Compound 9, N-Acetyl-1,3,4,6-tetra-O-acetyl-α-D-5-thio-glucosamine], in assay [1], the “GNA and ConA reactivity of hybridoma IgG” value is “slight decrease in GNA and ConA reactivity when using a very high dose”. Also, the O-GlcNAc levels entry in assay [2] was “O-GlcNAc levels were decreased in a dose-dependent fashion”.
